According to patent US9247759B2, “Identification of human T2R receptors that respond to bitter compounds that elicit the bitter taste in compositions, and the use thereof in assays to identify compounds that inhibit (block) bitter taste in compositions and use thereof” (SENOMYX, INC., priority 2007, dated 2016):
pIC50: −log10 of the molar value.

Legend:
[1] = molecular target: hT2R3 (Homo sapiens (Human), UniProt Q9NYW6); assay: hT2R panel inhibition, transient HEK293 G16g44, agonist Chloroquine pH6.5 50 μM; type: cell-based; conditions: receptor activated to EC80 with the corresponding agonist; for inhibition at 25 µM: HEK293, compound at 25 μM, read-out: screening result against bitter receptor 3
hT2R3, sequence (Q9NYW6 whole entry): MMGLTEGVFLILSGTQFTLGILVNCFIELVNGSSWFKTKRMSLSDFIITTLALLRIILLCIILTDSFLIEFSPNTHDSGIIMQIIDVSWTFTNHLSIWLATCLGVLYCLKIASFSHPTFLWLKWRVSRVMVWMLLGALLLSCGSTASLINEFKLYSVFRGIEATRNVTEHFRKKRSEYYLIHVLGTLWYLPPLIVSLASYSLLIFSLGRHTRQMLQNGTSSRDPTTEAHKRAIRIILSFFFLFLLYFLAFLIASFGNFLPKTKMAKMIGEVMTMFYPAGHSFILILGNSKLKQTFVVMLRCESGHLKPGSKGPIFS
Procedure, shortened: (§1)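 Compound C tested for reduction of receptor activity evoked by EC80-level bitter agonists, receptor by receptor. Assay cells: HEK293 line stably carrying promiscuous G protein G16g44, transiently transfected with individual human T2Rs.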

[2] = molecular target: hT2R5 (Homo sapiens (Human), UniProt Q9NYW4); assay: hT2R panel inhibition, transient HEK293 G16g44, agonist Picoline 10 mM; type: cell-based; conditions: HEK293, compound at 25 μM; receptor activated to EC80 with the corresponding agonist; read-out: screening result against bitter receptor 5
hT2R5, sequence (Q9NYW4 whole entry): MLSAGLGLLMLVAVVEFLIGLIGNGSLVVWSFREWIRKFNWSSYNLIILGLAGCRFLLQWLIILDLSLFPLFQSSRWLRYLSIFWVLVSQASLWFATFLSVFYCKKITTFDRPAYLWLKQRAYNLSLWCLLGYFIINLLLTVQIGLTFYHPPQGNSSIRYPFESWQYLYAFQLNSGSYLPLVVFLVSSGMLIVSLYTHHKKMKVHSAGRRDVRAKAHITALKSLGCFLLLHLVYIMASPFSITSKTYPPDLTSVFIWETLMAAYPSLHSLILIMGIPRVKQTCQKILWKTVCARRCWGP
Procedure, shortened: as §1

[3] = molecular target: hT2R7 (Homo sapiens (Human), UniProt Q9NYW3); assay: hT2R panel inhibition, transient HEK293 G16g44, agonist Chloroquine pH6.5 10 mM; type: cell-based; conditions: HEK293, compound at 25 μM; receptor activated to EC80 with the corresponding agonist; read-out: screening result against bitter receptor 7
hT2R7, sequence (Q9NYW3 whole entry): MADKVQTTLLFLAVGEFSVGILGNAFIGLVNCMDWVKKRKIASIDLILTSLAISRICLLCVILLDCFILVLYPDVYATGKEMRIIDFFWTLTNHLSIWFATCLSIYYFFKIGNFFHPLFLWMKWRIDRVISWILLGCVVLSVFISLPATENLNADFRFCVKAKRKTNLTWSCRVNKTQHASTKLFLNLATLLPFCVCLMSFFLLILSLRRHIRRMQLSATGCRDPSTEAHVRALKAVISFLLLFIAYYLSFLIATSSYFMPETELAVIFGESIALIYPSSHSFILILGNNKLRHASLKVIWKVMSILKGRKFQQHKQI
Procedure, shortened: as §1

[4] = molecular target: hT2R8 (Homo sapiens (Human), UniProt Q9NYW2); assay: hT2R panel inhibition, transient HEK293 G16g44, agonist Andrographolide 0.5 mM; type: cell-based; conditions: HEK293, compound at 25 μM; receptor activated to EC80 with the corresponding agonist; read-out: screening result against bitter receptor 8
hT2R8, sequence (Q9NYW2 whole entry): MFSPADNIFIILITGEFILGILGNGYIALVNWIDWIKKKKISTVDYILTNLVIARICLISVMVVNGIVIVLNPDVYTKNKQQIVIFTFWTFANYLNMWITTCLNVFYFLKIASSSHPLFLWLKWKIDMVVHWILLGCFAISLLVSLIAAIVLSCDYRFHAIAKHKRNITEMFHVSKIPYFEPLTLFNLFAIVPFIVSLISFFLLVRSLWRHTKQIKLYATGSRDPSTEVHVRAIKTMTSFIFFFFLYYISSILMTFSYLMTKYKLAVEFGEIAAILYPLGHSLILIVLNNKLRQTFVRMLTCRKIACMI
Protocol: Specifically, in order to evaluate the inhibitory selectivity of the Compound C compound, this compound was tested against 22 human T2Rs which were deorphaned by Senomyx. These receptors and the bitter ligands that activate these human T2Rs are reported in earlier patent applications which are incorporated by reference herein. These 22 human T2Rs are hT2R1, 3, 4, 5, 7, 8, 9, 10, 13, 14, 16, 44, 51, 54, 55, 61, 63, 64, 65, 67, 71 and 75. The amino acid and nucleic acid sequences of all of these T2Rs may be found in these earlier patent applications. These human T2Rs were each individually transiently transfected into HEK293 cells that stably express the promiscuous G protein G16g44 and functional assays were effected using these receptors as disclosed in these same patent applications. […] The ligands were used at EC80 concentration levels. The list of bitter ligands utilized and the tested ligand concentrations are contained in Table 5 of this example.

[5] = system: hT2R55; assay: hT2R panel inhibition, transient HEK293 G16g44, agonist Cinchonine 150 μM; type: cell-based, human; conditions: compound at 25 μM; receptor activated to EC80 with the corresponding agonist
Procedure, shortened: as §1

[6] = molecular target: hT2R61 (Homo sapiens (Human), UniProt P59537); assay: hT2R panel inhibition, transient HEK293 G16g44, agonist Aristolochic Acid 25 nM; type: cell-based; conditions: HEK293, compound at 25 μM; receptor activated to EC80 with the corresponding agonist; read-out: screening result against bitter receptor 61
hT2R61, sequence (P59537 whole entry): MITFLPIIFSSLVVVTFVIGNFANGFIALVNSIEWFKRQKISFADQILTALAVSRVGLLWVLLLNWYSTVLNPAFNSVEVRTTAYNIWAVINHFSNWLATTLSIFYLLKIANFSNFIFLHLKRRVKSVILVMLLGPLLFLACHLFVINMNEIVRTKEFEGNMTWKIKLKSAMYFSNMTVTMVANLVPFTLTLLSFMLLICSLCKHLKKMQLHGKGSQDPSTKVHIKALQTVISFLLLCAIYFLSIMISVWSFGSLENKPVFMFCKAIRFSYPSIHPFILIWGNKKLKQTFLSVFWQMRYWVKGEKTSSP
Procedure, shortened: as §1

[7] = system: hT2R63; assay: hT2R panel inhibition, transient HEK293 G16g44, agonist Caffeine 1 mM or Andrographolide 100 μM; type: cell-based, human; conditions: compound at 25 μM; receptor activated to EC80 with the corresponding agonist
Procedure, shortened: as §1

[8] = molecular target: hT2R64 (Homo sapiens (Human), UniProt P59538); assay: hT2R panel inhibition, transient HEK293 G16g44, agonist Aristolochic Acid 1 μM; type: cell-based; conditions: HEK293, compound at 25 μM; receptor activated to EC80 with the corresponding agonist; read-out: screening result against bitter receptor 64
hT2R64, sequence (P59538 whole entry): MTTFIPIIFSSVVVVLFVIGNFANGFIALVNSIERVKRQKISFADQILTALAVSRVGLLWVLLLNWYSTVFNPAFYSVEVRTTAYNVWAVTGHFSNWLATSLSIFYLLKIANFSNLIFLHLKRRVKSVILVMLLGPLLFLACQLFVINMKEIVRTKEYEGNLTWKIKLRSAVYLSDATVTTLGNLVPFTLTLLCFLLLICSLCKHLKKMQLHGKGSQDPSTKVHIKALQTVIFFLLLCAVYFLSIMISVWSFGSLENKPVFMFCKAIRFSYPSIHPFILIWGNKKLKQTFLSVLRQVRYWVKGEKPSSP
Procedure, shortened: as §1

[9] = system: hT2R67; assay: hT2R panel inhibition, transient HEK293 G16g44, agonist Andrographolide 5 μM; type: cell-based, human; conditions: compound at 25 μM; receptor activated to EC80 with the corresponding agonist
Procedure, shortened: as §1

[10] = molecular target: hT2R71 (Homo sapiens (Human), UniProt P59536); assay: hT2R panel inhibition, transient HEK293 G16g44, agonist Picric Acid 10 μM; type: cell-based; conditions: receptor activated to EC80 with the corresponding agonist; for inhibition at 25 µM: HEK293, compound at 25 μM, read-out: screening result against bitter receptor 71
hT2R71, sequence (P59536 whole entry): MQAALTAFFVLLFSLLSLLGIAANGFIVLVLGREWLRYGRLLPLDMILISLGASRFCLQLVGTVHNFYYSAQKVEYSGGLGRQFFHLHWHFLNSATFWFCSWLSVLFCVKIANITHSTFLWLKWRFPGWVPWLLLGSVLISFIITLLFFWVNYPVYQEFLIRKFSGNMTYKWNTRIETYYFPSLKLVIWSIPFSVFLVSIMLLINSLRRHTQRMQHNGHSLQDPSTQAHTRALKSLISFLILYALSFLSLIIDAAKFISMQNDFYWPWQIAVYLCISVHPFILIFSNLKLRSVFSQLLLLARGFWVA
Procedure, shortened: as §1

[11] = molecular target: hT2R9 (Homo sapiens (Human), UniProt Q9NYW1); assay: hT2R panel inhibition, transient HEK293 G16g44, agonist Ofloxacin 1 mM; type: cell-based; conditions: HEK293, compound at 25 μM; receptor activated to EC80 with the corresponding agonist; read-out: screening result against bitter receptor 9
hT2R9, sequence (Q9NYW1 whole entry): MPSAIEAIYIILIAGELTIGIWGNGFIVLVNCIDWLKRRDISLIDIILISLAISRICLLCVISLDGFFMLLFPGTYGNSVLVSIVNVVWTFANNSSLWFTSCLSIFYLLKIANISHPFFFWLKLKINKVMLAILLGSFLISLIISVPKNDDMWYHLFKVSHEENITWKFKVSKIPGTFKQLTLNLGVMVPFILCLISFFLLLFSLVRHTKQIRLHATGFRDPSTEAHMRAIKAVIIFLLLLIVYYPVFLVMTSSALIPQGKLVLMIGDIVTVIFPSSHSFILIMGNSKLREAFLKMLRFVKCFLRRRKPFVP
Procedure, shortened: as §1

[12] = system: hT2R44; assay: hT2R panel inhibition, transient HEK293 G16g44, agonist Denatonium 0.5 μM; type: cell-based, human; conditions: compound at 25 μM; receptor activated to EC80 with the corresponding agonist
Procedure, shortened: as §1

[13] = system: hT2R54; assay: hT2R panel inhibition, transient HEK293 G16g44, agonist Ranitidine 5 mM; type: cell-based, human; conditions: compound at 25 μM; receptor activated to EC80 with the corresponding agonist
Procedure, shortened: as §1

[14] = molecular target: T1, hT2R14 (Homo sapiens (Human), UniProt Q9NYV8); assay: hT2R14 antagonist high-throughput FLIPR assay, stable cell line with G16g44, agonist aristolochic acid; type: cell-based; conditions: Table C; read-out: hT2R14 IC50
T1 sequence (Q9NYV8 whole entry): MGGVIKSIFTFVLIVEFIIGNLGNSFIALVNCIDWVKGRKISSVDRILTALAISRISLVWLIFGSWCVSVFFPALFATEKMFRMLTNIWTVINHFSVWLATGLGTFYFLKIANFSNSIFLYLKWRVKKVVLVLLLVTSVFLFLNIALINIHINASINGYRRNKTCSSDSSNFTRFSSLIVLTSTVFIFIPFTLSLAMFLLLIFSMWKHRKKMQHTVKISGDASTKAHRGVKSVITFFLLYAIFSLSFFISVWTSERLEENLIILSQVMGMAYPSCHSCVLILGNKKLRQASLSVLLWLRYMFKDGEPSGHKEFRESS
Procedure, shortened: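 Compounds were co-applied with 3 μM aristolochic acid, a dose set to reach 70-80% of maximal hT2R14 activation. Read-out was FLIPR fluorescence in a stable HEK293 line co-expressing hT2R14 and G16g44.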

[15] = molecular target: hT2R10 (Homo sapiens (Human), UniProt Q9NYW0); assay: hT2R panel inhibition, transient HEK293 G16g44, agonist Strychnine 50 μM; type: cell-based; conditions: receptor activated to EC80 with the corresponding agonist; for inhibition at 25 µM: HEK293, read-out: screening result against bitter receptor 10, compound at 25 μM
hT2R10, sequence (Q9NYW0 whole entry): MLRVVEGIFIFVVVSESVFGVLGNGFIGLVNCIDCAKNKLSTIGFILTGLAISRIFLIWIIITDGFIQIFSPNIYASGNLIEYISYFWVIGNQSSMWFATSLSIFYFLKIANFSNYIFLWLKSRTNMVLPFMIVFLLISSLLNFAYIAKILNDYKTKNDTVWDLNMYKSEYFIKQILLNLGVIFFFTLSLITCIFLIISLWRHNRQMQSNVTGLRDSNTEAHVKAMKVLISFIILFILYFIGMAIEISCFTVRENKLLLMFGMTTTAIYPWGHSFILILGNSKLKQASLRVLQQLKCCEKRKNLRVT

[16] = molecular target: T1, hT2R14; assay: hT2R panel inhibition, transient HEK293 G16g44, agonist Aristolochic Acid 2 μM; type: cell-based; conditions: HEK293, compound at 25 μM; receptor activated to EC80 with the corresponding agonist; read-out: screening result against bitter receptor 14
Procedure, shortened: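 Agonist challenge was at EC80, with 0.5 mM andrographolide on hT2R8 and 2 μM aristolochic acid on hT2R14. Inhibition was measured in functional assays in HEK293 cells that stably carry the promiscuous G protein G16g44 and were transiently transfected with the individual receptor.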

[17] = molecular target: hT2R51 (Homo sapiens (Human), UniProt P59533); assay: hT2R panel inhibition, transient HEK293 G16g44, agonist Prop 2.5 μM; type: cell-based; conditions: receptor activated to EC80 with the corresponding agonist; for inhibition at 25 µM: HEK293, compound at 25 μM, read-out: screening result against bitter receptor 51
hT2R51, sequence (P59533 whole entry): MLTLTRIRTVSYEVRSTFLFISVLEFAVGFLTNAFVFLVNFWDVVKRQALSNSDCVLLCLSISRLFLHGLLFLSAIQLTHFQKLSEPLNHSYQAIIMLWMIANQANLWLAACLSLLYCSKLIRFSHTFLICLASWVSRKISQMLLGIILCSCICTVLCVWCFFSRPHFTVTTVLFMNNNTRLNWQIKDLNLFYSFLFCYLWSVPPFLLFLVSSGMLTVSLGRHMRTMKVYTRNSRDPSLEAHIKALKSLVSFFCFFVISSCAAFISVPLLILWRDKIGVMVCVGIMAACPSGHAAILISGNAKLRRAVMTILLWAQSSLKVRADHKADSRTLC
Procedure, shortened: as §1

[18] = molecular target: hT2R75 (Homo sapiens (Human), UniProt P59540); assay: hT2R panel inhibition, transient HEK293 G16g44, agonist Strychnine 1 μM; type: cell-based; conditions: HEK293, read-out: screening result against bitter receptor 75, compound at 25 μM; receptor activated to EC80 with the corresponding agonist
hT2R75, sequence (P59540 whole entry): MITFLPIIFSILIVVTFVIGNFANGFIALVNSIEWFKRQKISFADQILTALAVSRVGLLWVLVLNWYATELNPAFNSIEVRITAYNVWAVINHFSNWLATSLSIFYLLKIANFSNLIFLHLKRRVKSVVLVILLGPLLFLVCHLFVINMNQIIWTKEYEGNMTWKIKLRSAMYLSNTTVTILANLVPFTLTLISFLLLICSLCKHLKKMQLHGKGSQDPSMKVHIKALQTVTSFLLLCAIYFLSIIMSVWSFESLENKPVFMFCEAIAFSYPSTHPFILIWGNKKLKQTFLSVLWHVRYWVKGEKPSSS

[19] = molecular target: hT2R16 (Homo sapiens (Human), UniProt Q9NYV7); assay: hT2R panel inhibition, transient HEK293 G16g44, agonist Salicin 1 mM; type: cell-based; conditions: HEK293, compound at 25 μM; receptor activated to EC80 with the corresponding agonist; read-out: screening result against bitter receptor 16
hT2R16, sequence (Q9NYV7 whole entry): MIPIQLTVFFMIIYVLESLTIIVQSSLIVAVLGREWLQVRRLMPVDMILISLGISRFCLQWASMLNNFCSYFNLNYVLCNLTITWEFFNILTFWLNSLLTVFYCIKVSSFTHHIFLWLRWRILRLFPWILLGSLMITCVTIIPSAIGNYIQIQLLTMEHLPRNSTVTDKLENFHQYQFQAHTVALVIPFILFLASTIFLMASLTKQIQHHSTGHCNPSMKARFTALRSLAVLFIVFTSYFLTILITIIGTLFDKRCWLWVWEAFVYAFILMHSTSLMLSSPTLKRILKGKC
Procedure, shortened: as §1

[20] = system: hT2R65; assay: hT2R panel inhibition, transient HEK293 G16g44, agonist Oleuropein 1 mM; type: cell-based, human; conditions: compound at 25 μM; receptor activated to EC80 with the corresponding agonist
Procedure, shortened: as §1

Row | Compound | inhibition at 25 µM [1] [%] | inhibition at 25 µM [2] [%] | inhibition at 25 µM [3] [%] | inhibition at 25 µM [4] [%] | screening result against bitter receptor 55 [5] | inhibition at 25 µM [6] [%] | screening result against bitter receptor 63 [7] | inhibition at 25 µM [8] [%] | screening result against bitter receptor 67 [9] | inhibition at 25 µM [10] [%] | inhibition at 25 µM [11] [%] | screening result against bitter receptor 44 [12] | screening result against bitter receptor 54 [13] | inhibition at 25 µM [16] [%] | inhibition at 25 µM [18] [%] | inhibition at 25 µM [15] [%] | inhibition at 25 µM [19] [%] | inhibition at 25 µM [17] [%] | screening result against bitter receptor 65 [20] | also measured
1 | COc1ccc(CN(Cc2ccsc2)S(=O)(=O)c2ccc(C(=O)O)cc2)cc1 [Example 5-62, 4-(N-(4-methoxybenzyl)-N-(thiophen-3-ylmethyl)sulfamoyl)benzoic acid] | 20 to 40 | 20 to 40 | 20 to 40 | 20 to 40 | +++ (60% to 80% inhibition = +++) | 40 to 60 | ++++ (80% or greater inhibition = ++++) | 40 to 60 | + (20% to 40% inhibition = +) | 20 to 40 | – | – | – | – | – | – | – | – | – | –
2 | COc1ccc(CN(Cc2ccccc2C)S(=O)(=O)c2ccc(C(=O)O)cc2)cc1 [Example 5-64, 4-(N-(4-methoxybenzyl)-N-(2-methylbenzyl)sulfamoyl)benzoic acid] | 20 to 40 | 20 to 40 | – | 20 to 40 | – | – | + (20% to 40% inhibition = +) | 20 to 40 | – | – | 20 to 40 | + (20% to 40% inhibition = +) | + (20% to 40% inhibition = +) | – | – | – | – | – | – | –
3 | COc1ccc(CN(Cc2ccc(C)cc2)S(=O)(=O)c2ccc(C(=O)O)cc2)cc1 [Example 5-66, 4-(N-(4-methoxybenzyl)-N-(4-methylbenzyl)sulfamoyl)benzoic acid] | 20 to 40 | – | – | 20 to 40 | – | – | – | – | – | – | 20 to 40 | + (20% to 40% inhibition = +) | – | – | – | – | – | – | – | –
4 | COc1ccc(CN(Cc2ccc(F)cc2)S(=O)(=O)c2ccc(C(=O)O)cc2)cc1 [Example 5-69, 4-(N-(4-fluorobenzyl)-N-(4-methoxybenzyl)sulfamoyl)benzoic acid] | – | 20 to 40 | – | 20 to 40 | +++ (60% to 80% inhibition = +++) | 60 to 80 | ++++ (80% or greater inhibition = ++++) | 40 to 60 | – | – | – | + (20% to 40% inhibition = +) | – | > 80 | 20 to 40 | – | – | – | – | pIC50 [14]: 5.08; screening result against bitter receptor 3 ([1]; compound at 25 μM): + (20% to 40% inhibition = +); screening result against bitter receptor 10 ([15]; compound at 25 μM): + (20% to 40% inhibition = +); screening result against bitter receptor 51 ([17]; compound at 25 μM): ++ (40% to 60% inhibition = ++); screening result against bitter receptor 71 ([10]; compound at 25 μM): + (20% to 40% inhibition = +)
5 | Cc1ccc(CN(Cc2ccccc2)S(=O)(=O)c2ccc(C(=O)O)cc2)cc1 [Example 5-70, 4-(N-benzyl-N-(4-methylbenzyl)sulfamoyl)benzoic acid] | 40 to 60 | 40 to 60 | 20 to 40 | 20 to 40 | +++ (60% to 80% inhibition = +++) | 40 to 60 | ++++ (80% or greater inhibition = ++++) | 20 to 40 | + (20% to 40% inhibition = +) | 40 to 60 | – | + (20% to 40% inhibition = +) | ++ (40% to 60% inhibition = ++) | 60 to 80 | 20 to 40 | 40 to 60 | 40 to 60 | 40 to 60 | ++ (40% to 60% inhibition = ++) | –
6 | O=C(O)c1ccc(S(=O)(=O)N(Cc2ccccc2)Cc2ccc(Cl)cc2)cc1 [Example 5-77, 4-(N-benzyl-N-(4-chlorobenzyl)sulfamoyl)benzoic acid] | 40 to 60 | 20 to 40 | 20 to 40 | 20 to 40 | ++ (40% to 60% inhibition = ++) | 60 to 80 | +++ (60% to 80% inhibition = +++) | 40 to 60 | + (20% to 40% inhibition = +) | 40 to 60 | – | + (20% to 40% inhibition = +) | ++ (40% to 60% inhibition = ++) | > 80 | – | 20 to 40 | 20 to 40 | 40 to 60 | ++ (40% to 60% inhibition = ++) | –
